Experimental data: US20040063662A1, “Selenophene anti-tumor agents” (priority 1996, published 2004)

Tests used:
UACC-257 = experiment: NCI human tumor cell panel: UACC-257 (Melanoma); type: cell-based; settings: for GI50: UACC-257, read-out: Log10 GI50 (converted); for IC (TGI): UACC-257, read-out: Log10 TGI (converted)
CCRF-CEM = experiment: NCI human tumor cell panel: CCRF-CEM (Leukemia); type: cell-based; settings: for GI50: read-out: Log10 GI50 (converted); for IC (TGI): read-out: Log10 TGI (converted)
MDA-MB-435 = experiment: NCI human tumor cell panel: MDA-MB-435 (Breast Cancer); type: cell-based; settings: for GI50: MDA-MB-435, read-out: Log10 GI50 (converted); for IC (TGI): MDA-MB-435, read-out: Log10 TGI (converted)
HOP-92 = experiment: NCI human tumor cell panel: HOP-92 (Non-Small Cell Lung Cancer); settings: for GI50: HOP-92, read-out: Log10 GI50 (converted); for IC (TGI): HOP-92, read-out: Log10 TGI
HOP-62 = experiment: NCI human tumor cell panel: HOP-62 (Non-Small Cell Lung Cancer); type: cell-based; settings: for GI50: HOP-62, read-out: Log10 GI50 (converted); for IC (TGI): HOP-62, read-out: Log10 TGI (converted)
UACC-62 = experiment: NCI human tumor cell panel: UACC-62 (Melanoma); type: cell-based; settings: for GI50: UACC-62, read-out: Log10 GI50 (converted); for IC (TGI): UACC-62, read-out: Log10 TGI (converted)
OVCAR-5 = experiment: NCI human tumor cell panel: OVCAR-5 (Ovarian Cancer); type: cell-based; settings: for GI50: OVCAR-5, read-out: Log10 GI50 (converted); for IC (TGI): OVCAR-5, read-out: Log10 TGI (converted)
MCF7/ADR-RES = experiment: NCI human tumor cell panel: MCF7/ADR-RES (Breast Cancer); type: cell-based; settings: for GI50: read-out: Log10 GI50 (converted); for IC (TGI): read-out: Log10 TGI (converted)
NCI-H23 = experiment: NCI human tumor cell panel: NCI-H23 (Non-Small Cell Lung Cancer); type: cell-based; settings: for GI50: NCI-H23, read-out: Log10 GI50 (converted)
NCI-H460 = experiment: NCI human tumor cell panel: NCI-H460 (Non-Small Cell Lung Cancer); type: cell-based; settings: for GI50: NCI-H460, read-out: Log10 GI50 (converted); for IC (TGI): NCI-H460, read-out: Log10 TGI (converted)
LOX IMVI = experiment: NCI human tumor cell panel: LOX IMVI (Melanoma); type: cell-based; settings: for GI50: read-out: Log10 GI50 (converted); for IC (TGI): read-out: Log10 TGI (converted)
MDA-N = experiment: NCI human tumor cell panel: MDA-N (Breast Cancer); type: cell-based; settings: for GI50: read-out: Log10 GI50 (converted); for IC (TGI): read-out: Log10 TGI (converted)
BT-549 = experiment: NCI human tumor cell panel: BT-549 (Breast Cancer); type: cell-based; settings: for GI50: BT-549, read-out: Log10 GI50 (converted); for IC (TGI): BT-549, read-out: Log10 TGI (converted)
OVCAR-4 = experiment: NCI human tumor cell panel: OVCAR-4 (Ovarian Cancer); type: cell-based; settings: for GI50: OVCAR-4, read-out: Log10 GI50 (converted)
RPMI-8226 = experiment: NCI human tumor cell panel: RPMI-8226 (Leukemia); type: cell-based; settings: for GI50: RPMI-8226, read-out: Log10 GI50 (converted); for IC (TGI): RPMI-8226, read-out: Log10 TGI
UO-31 = experiment: NCI human tumor cell panel: UO-31 (Renal Cancer); type: cell-based; settings: for GI50: UO-31, read-out: Log10 GI50 (converted); for IC (TGI): UO-31, read-out: Log10 TGI (converted)
A498 = experiment: NCI human tumor cell panel: A498 (Renal Cancer); type: cell-based; settings: for GI50: A498, read-out: Log10 GI50 (converted); for IC (TGI): A498, read-out: Log10 TGI (converted)
IGROV1 = experiment: NCI human tumor cell panel: IGROV1 (Ovarian Cancer); type: cell-based; settings: for GI50: IGROV-1, IGROV1, read-out: Log10 GI50 (converted); for IC (TGI): IGROV-1, IGROV1, read-out: Log10 TGI (converted)
DU-145 = experiment: NCI human tumor cell panel: DU-145 (Prostate Cancer); type: cell-based; settings: for GI50: DU-145, read-out: Log10 GI50 (converted); for IC (TGI): DU-145, read-out: Log10 TGI (converted)
OVCAR-8 = experiment: NCI human tumor cell panel: OVCAR-8 (Ovarian Cancer); type: cell-based; settings: for GI50: OVCAR-8, read-out: Log10 GI50 (converted); for IC (TGI): OVCAR-8, read-out: Log10 TGI (converted)
SR = experiment: NCI human tumor cell panel: SR (Leukemia); type: cell-based; settings: for GI50: read-out: Log10 GI50 (converted); for IC (TGI): read-out: Log10 TGI (converted)
SF-295 = experiment: NCI human tumor cell panel: SF-295 (CNS Cancer); type: cell-based; settings: for GI50: SF-295, read-out: Log10 GI50 (converted)
M14 = experiment: NCI human tumor cell panel: M14 (Melanoma); type: cell-based; settings: for GI50: M14, read-out: Log10 GI50 (converted); for IC (TGI): M14, read-out: Log10 TGI (converted)
MCF7 = experiment: NCI human tumor cell panel: MCF7 (Breast Cancer); type: cell-based; settings: for GI50: MCF7, read-out: Log10 GI50 (converted); for IC (TGI): MCF7, read-out: Log10 TGI (converted)
SNB-75 = experiment: NCI human tumor cell panel: SNB-75 (CNS Cancer); type: cell-based; settings: for GI50: SNB-75, read-out: Log10 GI50 (converted); for IC (TGI): SNB-75, read-out: Log10 TGI (converted)
SW-620 = experiment: NCI human tumor cell panel: SW-620 (Colon Cancer); type: cell-based; settings: for GI50: SW-620, read-out: Log10 GI50 (converted); for IC (TGI): SW-620, read-out: Log10 TGI (converted)
SN12C = experiment: NCI human tumor cell panel: SN12C (Renal Cancer); type: cell-based; settings: for GI50: read-out: Log10 GI50 (converted); for IC (TGI): read-out: Log10 TGI (converted)
SF-539 = experiment: NCI human tumor cell panel: SF-539 (CNS Cancer); type: cell-based; settings: for GI50: SF-539, read-out: Log10 GI50 (converted); for IC (TGI): SF-539, read-out: Log10 TGI (converted)
SK-MEL-5 = experiment: NCI human tumor cell panel: SK-MEL-5 (Melanoma); type: cell-based; settings: for GI50: SK-MEL-5, read-out: Log10 GI50 (converted); for IC (TGI): SK-MEL-5, read-out: Log10 TGI (converted)
SK-MEL-2 = experiment: NCI human tumor cell panel: SK-MEL-2 (Melanoma); type: cell-based; settings: for GI50: SK-MEL-2, read-out: Log10 GI50 (converted); for IC (TGI): SK-MEL-2, read-out: Log10 TGI (converted)
HS 578T = experiment: NCI human tumor cell panel: HS 578T (Breast Cancer); type: cell-based; settings: for GI50: read-out: Log10 GI50 (converted); for IC (TGI): read-out: Log10 TGI (converted)
786-0 = experiment: NCI human tumor cell panel: 786-0 (Renal Cancer); type: cell-based; settings: for IC (TGI): 786-0, read-out: Log10 TGI (converted)

## OCc1ccc(-c2ccc(-c3ccc(CO)[se]3)[se]2)[se]1 [compound 675247]
UACC-257
  GI50: 0.437 µM
  IC (TGI): 2 µM
CCRF-CEM
  GI50: 3.39 µM
  IC (TGI): 10 µM
MDA-MB-435
  GI50: 2.95 µM
  IC (TGI): 9.77 µM
HOP-92
  GI50: 2.4 µM
  IC (TGI): 7.59 µM
HOP-62
  GI50: 5.5 µM
  IC (TGI): 21.4 µM
UACC-62
  GI50: 0.155 µM
  IC (TGI): 2.45 µM
OVCAR-5
  GI50: 1.32 µM
  IC (TGI): 12.9 µM
MCF7/ADR-RES
  GI50: 3.8 µM
  IC (TGI): 26.3 µM
NCI-H23
  GI50: 6.61 µM
NCI-H23; NCI-H23, read-out: Log10 TGI (converted)
  IC (TGI): 25.1 µM
NCI-H460
  GI50: 0.525 µM
  IC (TGI): 10 µM
LOX IMVI
  GI50: 3.02 µM
  IC (TGI): 7.08 µM
MDA-N
  GI50: 7.76 µM
  IC (TGI): 25.1 µM
BT-549
  GI50: 3.39 µM
  IC (TGI): 14.1 µM
OVCAR-4
  GI50: 1.7 µM
OVCAR-4; OVCAR-4, read-out: Log10 TGI (converted)
  IC (TGI): 6.92 µM
RPMI-8226
  GI50: 4.07 µM
  IC (TGI): > 100 µM
UO-31
  GI50: 5.25 µM
  IC (TGI): 14.8 µM
A498
  GI50: 0.38 µM
  IC (TGI): 1.41 µM
IGROV1
  GI50: 1.38 µM
  IC (TGI): 6.46 µM
DU-145
  GI50: 6.92 µM
  IC (TGI): 19.5 µM
OVCAR-8
  GI50: 3.72 µM
  IC (TGI): 17.8 µM
SR
  GI50: 3.72 µM
  IC (TGI): > 100 µM
SF-295
  GI50: 11.7 µM
SF-295; SF-295, read-out: Log10 TGI (converted)
  IC (TGI): 28.8 µM
M14
  GI50: 3.72 µM
  IC (TGI): 12.9 µM
MCF7
  GI50: 0.158 µM
  IC (TGI): 11.2 µM
SNB-75
  GI50: 14.8 µM
  IC (TGI): 38.9 µM
SW-620
  GI50: 1.35 µM
  IC (TGI): 3.63 µM
SN12C
  GI50: 2.75 µM
  IC (TGI): 11.7 µM
SF-539
  GI50: 17.4 µM
  IC (TGI): 40.7 µM
SK-MEL-5
  GI50: 1.45 µM
  IC (TGI): 3.02 µM
SK-MEL-2
  GI50: 7.08 µM
  IC (TGI): 24 µM
HS 578T
  GI50: 3.24 µM
  IC (TGI): 11.2 µM
786-0; 786-0, read-out: Log10 GI50 (converted)
  GI50: 2.75 µM
786-0
  IC (TGI): 6.31 µM

## O=Cc1ccc(-c2ccc(-c3ccc(C=O)[se]3)s2)s1 [compound 688829]
UACC-257
  GI50: 0.195 µM
  IC (TGI): 0.513 µM
CCRF-CEM
  GI50: 7.94 µM
  IC (TGI): > 100 µM
MDA-MB-435
  GI50: 33.1 µM
  IC (TGI): > 100 µM
HOP-92
  GI50: 97.7 µM
  IC (TGI): > 100 µM
HOP-62
  GI50: 0.251 µM
  IC (TGI): 15.8 µM
UACC-62
  GI50: 0.141 µM
  IC (TGI): > 100 µM
OVCAR-5
  GI50: 0.123 µM
  IC (TGI): 0.501 µM
MCF7/ADR-RES
  GI50: 30.2 µM
  IC (TGI): > 100 µM
NCI-H23
  GI50: > 100 µM
NCI-H460
  GI50: 0.141 µM
  IC (TGI): > 100 µM
LOX IMVI
  GI50: 16.6 µM
  IC (TGI): > 100 µM
MDA-N
  GI50: 20.9 µM
  IC (TGI): > 100 µM
BT-549
  GI50: 56.2 µM
  IC (TGI): > 100 µM
OVCAR-4
  GI50: 0.186 µM
RPMI-8226
  GI50: 38.9 µM
  IC (TGI): > 100 µM
UO-31
  GI50: > 100 µM
  IC (TGI): > 100 µM
A498
  GI50: 0.0214 µM
  IC (TGI): 0.0794 µM
IGROV1
  GI50: 0.178 µM
  IC (TGI): 2.45 µM
DU-145
  GI50: > 100 µM
  IC (TGI): > 100 µM
OVCAR-8
  GI50: 15.1 µM
  IC (TGI): 93.3 µM
SR
  GI50: 24.5 µM
  IC (TGI): 72.4 µM
SF-295
  GI50: > 100 µM
M14
  GI50: 20 µM
  IC (TGI): > 100 µM
MCF7
  GI50: 0.191 µM
  IC (TGI): > 100 µM
SNB-75
  GI50: 75.9 µM
  IC (TGI): > 100 µM
SW-620
  GI50: 0.832 µM
  IC (TGI): > 100 µM
SN12C
  GI50: 28.2 µM
  IC (TGI): 85.1 µM
SF-539
  GI50: 27.5 µM
  IC (TGI): > 100 µM
SK-MEL-5
  GI50: 23.4 µM
  IC (TGI): > 100 µM
SK-MEL-2
  GI50: 33.9 µM
  IC (TGI): > 100 µM
HS 578T
  GI50: 2.88 µM
  IC (TGI): > 100 µM
786-0
  IC (TGI): 26.9 µM
